Usually IC50 stands for the concentration needed to halve the response being measured. In general, AC50 refers to the concentration at which the activity in the assay is half-maximal. In general, EC50 refers to the concentration giving half of the maximal effect. Usually CC50 stands for the concentration at which the toxic effect on the cells reaches its halfway point.

Results on two molecules are retold here after ChEMBL document CHEMBL1201862, “PubChem BioAssay data set” (2004).

In test [1] the target is Induced myeloid leukemia cell differentiation protein Mcl-1 (Homo sapiens, UniProt Q07820). As to the kind of experiment: MCL1-BIM BH3 interaction inhibitors, dose response, biochemical, fluorescence polarization, BIM-BH3 peptide, 1536-well (AID 2217). (In general: Polarisation of emitted light reports the rotation of a fluorescent probe.)
The target of the next test is Bcl-2-like protein 1 (Homo sapiens, UniProt Q07817). Description: BCL-XL inhibitors, dose response, selectivity assay for MCL1 inhibitor project, biochemical, fluorescence polarization, 1536-well (AID 2218).
The next test addresses T1, Caspase-6 (Homo sapiens, UniProt P55212).
T1 sequence (P55212 whole entry): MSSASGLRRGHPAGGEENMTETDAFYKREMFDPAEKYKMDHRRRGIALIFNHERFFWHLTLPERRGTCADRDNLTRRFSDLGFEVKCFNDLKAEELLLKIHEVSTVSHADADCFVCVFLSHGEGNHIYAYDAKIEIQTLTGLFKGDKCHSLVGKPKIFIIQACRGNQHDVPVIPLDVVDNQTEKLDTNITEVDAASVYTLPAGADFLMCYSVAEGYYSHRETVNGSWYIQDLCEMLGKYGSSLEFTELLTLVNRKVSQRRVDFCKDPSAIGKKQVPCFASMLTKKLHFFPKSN
Description: human caspase-6 inhibitors, dose response, biochemical, VEID-R110 fluorescence, cherry-pick (AID 720632).

Test [2] concerns the target T2, Neuropeptide Y receptor type 1 (Homo sapiens, UniProt P25929).
T2 sequence (P25929 whole entry): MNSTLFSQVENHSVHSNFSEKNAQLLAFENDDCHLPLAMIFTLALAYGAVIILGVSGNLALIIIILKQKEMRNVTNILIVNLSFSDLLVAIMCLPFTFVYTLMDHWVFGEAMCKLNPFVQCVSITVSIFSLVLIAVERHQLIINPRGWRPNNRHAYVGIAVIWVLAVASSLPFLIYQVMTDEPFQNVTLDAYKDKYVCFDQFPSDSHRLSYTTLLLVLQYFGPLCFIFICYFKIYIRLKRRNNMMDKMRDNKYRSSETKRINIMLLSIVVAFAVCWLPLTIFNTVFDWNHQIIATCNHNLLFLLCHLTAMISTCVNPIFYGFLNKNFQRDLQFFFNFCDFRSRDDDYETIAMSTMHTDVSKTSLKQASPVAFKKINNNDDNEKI
Description: Fluorescence-based counterscreen for potentiators or agonists of NPY-Y2: cell-based high-throughput dose response assay for potentiators or agonists of NPY-Y1. The test is classed as functional. (In general: The purpose of a counterscreen is to sort out artefacts and off-target activity.)

The next test deals with HEK293. As to the kind of experiment: Fluorescence-based counterscreen for potentiators or agonists of NPY-Y2: cell-based high-throughput dose response assay to identify inhibitors of cyclic nucleotide gated ion channel (CNGC) activity. In this assay, the parental HEK293 cell line transfected with a cyclic-nucleotide gated ion channel (CNGC)-based cAMP sensor is used to measure inhibition of isoproterenol-induced CNGC activity by test compound. In kind it is functional. The note with it: Homo sapiens.

Test [3] relates to Streptococcus sp. 'group A'. Description: growth inhibition of control SK(-) GAS strain, dose response, counter-screen for streptokinase expression inhibitor project, luminescence, kanamycin, BacTiterGlo, confirmation (AID 1900). The test is classed as functional, organism-based.
Test [4] concerns the target T3, Neuropeptide Y receptor type 2 (Homo sapiens, UniProt P49146).
T3 sequence (P49146 whole entry): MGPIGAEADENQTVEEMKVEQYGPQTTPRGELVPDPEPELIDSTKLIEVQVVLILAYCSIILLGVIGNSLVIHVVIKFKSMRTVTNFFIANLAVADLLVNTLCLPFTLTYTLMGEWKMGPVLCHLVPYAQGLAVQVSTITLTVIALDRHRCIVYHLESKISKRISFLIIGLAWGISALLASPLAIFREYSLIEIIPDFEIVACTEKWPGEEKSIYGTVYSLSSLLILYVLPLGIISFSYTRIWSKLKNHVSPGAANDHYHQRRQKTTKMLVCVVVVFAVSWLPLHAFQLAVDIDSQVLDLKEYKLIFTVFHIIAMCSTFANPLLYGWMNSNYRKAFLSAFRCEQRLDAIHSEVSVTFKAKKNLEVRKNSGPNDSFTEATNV
Description: Fluorescence-based cell-based high-throughput dose response assay for agonists of NPY-Y2. [Related pubchem assays: 1703 (Screening assay (CNGC inhibitors).), 1359 (Screening assay (NPY-Y2 potentiators or agonists).), 1304 (Screening assay (NPY-Y1 potentiators or agonists).), 1710 (Screening assay (NPY-Y2 agonists).), 1791 (Summary AID.)]. In kind it is functional.

In the next test the target is T4, Streptokinase A (Streptococcus pyogenes serotype M1, UniProt P10520).
T4 sequence (P10520 whole entry): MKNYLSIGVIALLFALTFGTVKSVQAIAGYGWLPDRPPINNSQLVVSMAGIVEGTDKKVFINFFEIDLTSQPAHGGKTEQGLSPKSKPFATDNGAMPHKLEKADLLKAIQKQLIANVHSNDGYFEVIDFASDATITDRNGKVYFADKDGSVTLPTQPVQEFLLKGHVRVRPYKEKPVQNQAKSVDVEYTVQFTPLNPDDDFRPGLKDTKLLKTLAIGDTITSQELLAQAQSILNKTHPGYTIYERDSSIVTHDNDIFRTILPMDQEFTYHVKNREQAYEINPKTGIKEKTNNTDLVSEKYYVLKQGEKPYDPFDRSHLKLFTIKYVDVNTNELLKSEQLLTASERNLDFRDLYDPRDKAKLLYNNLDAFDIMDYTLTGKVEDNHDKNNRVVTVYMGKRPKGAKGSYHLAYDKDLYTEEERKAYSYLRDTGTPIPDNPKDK
Description: S. pyogenes streptokinase expression inhibitors, potency, dose response, plasminogen activation absorbance, OD405 (AID 1914).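 Further: secreted streptokinase activity via plasminogen activation per viability signal from cell pellet.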 In kind it is functional, Streptococcus pyogenes M1 GAS.

Test [5] has as its target G-protein coupled receptor 55 (Homo sapiens, UniProt Q9Y2T6). Description: GPR55 antagonists blocking LPI-driven arrestin recruitment, primary screen, imaging, U2OS, beta-arrestin-GFP, LPI agonist (AID 2013).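 Further: antagonist potency measured as reduced agonist-driven arrestin aggregation.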 The test is classed as functional.
Test [6] deals with T3, Neuropeptide Y receptor type 2. Description: Fluorescence-based cell-based high-throughput dose response assay for potentiators or agonists of NPY-Y2. [Related pubchem assays: 1539 (Screening assay (NPY-Y2 potentiators or agonists).), 1703 (Screening assay (CNGC inhibitors).), 1359 (Screening assay (NPY-Y2 potentiators or agonists).), 1304 (Screening assay (NPY-Y1 potentiators or agonists).) …. The test is classed as functional.

The target of test [7] is T2, Neuropeptide Y receptor type 1. Description: Fluorescence-based counterscreen for agonists of NPY-Y2: cell-based high-throughput dose response assay for agonists of NPY-Y1. The test is classed as functional.
A further test deals with Streptococcus. As to the kind of experiment: Group A Streptococcus viability loss, dose response, counter-screen for streptokinase expression inhibitor project, luminescence, BacTiterGlo (AID 1915).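 Further: potency for reduction of bacterial viability or growth.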 The test is classed as functional, organism-based.
Test [8] in a line: HeLa cell cytotoxicity, dose response, cytotoxicity control for MgcRacGAP inhibitor project (AID 624300). In kind it is functional.
For test [9], the target named is T5, Rac GTPase-activating protein 1 (Homo sapiens, UniProt Q9H0H5).
T5 sequence (Q9H0H5 whole entry): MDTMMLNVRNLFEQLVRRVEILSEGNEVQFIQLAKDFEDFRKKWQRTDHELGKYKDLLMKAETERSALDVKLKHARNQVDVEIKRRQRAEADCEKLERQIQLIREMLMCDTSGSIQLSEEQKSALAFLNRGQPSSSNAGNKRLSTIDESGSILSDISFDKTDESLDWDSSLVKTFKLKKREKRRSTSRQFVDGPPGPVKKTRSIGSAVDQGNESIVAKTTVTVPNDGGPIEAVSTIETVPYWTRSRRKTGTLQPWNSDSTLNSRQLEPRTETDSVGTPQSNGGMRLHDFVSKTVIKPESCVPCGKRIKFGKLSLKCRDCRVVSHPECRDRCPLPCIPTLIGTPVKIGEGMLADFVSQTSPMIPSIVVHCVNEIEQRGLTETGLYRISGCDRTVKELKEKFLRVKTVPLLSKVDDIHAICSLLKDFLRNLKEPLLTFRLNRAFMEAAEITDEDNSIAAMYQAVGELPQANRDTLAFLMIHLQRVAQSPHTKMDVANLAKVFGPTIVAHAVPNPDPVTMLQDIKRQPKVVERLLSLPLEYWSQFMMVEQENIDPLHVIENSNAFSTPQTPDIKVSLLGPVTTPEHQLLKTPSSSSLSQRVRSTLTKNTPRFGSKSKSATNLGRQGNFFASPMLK
As to the kind of experiment: MgcRacGAP GTPase-activating activity inhibitors, confirmation, biochemical, ADP Hunter fluorescence, primary and confirmatory (AID 624330). The test is classed as functional.

Calls of active or inactive are those of the source.

Sequence of Bcl-2-like protein 1 (Q07817 whole entry): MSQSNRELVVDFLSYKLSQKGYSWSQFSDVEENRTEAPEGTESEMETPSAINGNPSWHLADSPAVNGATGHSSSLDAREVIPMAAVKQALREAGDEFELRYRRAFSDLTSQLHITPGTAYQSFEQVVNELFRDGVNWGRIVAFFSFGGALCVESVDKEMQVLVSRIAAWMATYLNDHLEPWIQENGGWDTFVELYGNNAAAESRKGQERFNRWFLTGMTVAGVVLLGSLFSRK
Sequence of Induced myeloid leukemia cell differentiation protein Mcl-1 (Q07820 whole entry): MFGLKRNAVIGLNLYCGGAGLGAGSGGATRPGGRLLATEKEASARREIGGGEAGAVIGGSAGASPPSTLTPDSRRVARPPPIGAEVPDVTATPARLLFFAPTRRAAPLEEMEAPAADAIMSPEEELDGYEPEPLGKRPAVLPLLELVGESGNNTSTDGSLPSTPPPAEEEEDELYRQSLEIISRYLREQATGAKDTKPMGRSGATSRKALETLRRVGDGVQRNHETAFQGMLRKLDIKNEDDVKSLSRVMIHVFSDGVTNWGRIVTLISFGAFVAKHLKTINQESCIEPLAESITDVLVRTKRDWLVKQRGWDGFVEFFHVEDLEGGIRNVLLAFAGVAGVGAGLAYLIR
Sequence of G-protein coupled receptor 55 (Q9Y2T6 whole entry): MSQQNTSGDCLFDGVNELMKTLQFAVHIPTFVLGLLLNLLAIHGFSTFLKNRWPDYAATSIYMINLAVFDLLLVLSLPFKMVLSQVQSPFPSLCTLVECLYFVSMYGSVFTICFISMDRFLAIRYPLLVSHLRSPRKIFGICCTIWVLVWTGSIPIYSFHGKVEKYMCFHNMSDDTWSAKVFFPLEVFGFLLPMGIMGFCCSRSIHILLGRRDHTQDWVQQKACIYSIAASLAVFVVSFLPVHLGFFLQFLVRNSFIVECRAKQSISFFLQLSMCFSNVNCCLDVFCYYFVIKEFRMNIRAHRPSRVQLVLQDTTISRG

`C/C(=N\NC(=O)c1cc(O)ccc1O)c1cccc(NC(=O)c2ccc(Cl)cc2)c1`: the 50% inhibitory concentration (IC50) in test [1] is reported as 59.1 µM (not active); at Bcl-2-like protein 1 it was > 109 µM (not active). Also, at Caspase-6, the AC50 was 8.91 µM (active).
As to `CCOC(=O)c1nc(Nc2ccc(Nc3ccccc3)cc2)c2ccccc2n1`, the EC50 in test [2] is 13.2 µM (not active); in the test with HEK293 it was > 11.8 µM (not active); in test [3] it was 10.2 µM (active); in test [4] it was 10.1 µM (not active); on Streptokinase A, > 150 µM (not active); in test [6], 13.2 µM (not active). Moreover, the EC50 in [7] was 10.9 µM (not active); in the test on Streptococcus it was 12.8 µM (active). Also, the concentration for half-maximal inhibition (IC50) in [5] was 2.48 µM (active); in test [9], 105 µM (active). The CC50 in test [8] is 44.8 µM (active).
